Assay results reported in BigSolDB 2.1.

CC(C)(C)OC(=O)N[C@@H](CC(=O)O)Cc1cc(F)c(F)cc1F
solubility (mole fraction)
Settings | in THF | in ethanol | in ethyl acetate | in methanol | in n-butanol | in n-propanol
280.15 K | 0.0933 | 0.036 | 0.0409 | 0.053 | 0.0274 | 0.0312
285.15 K | 0.105 | 0.042 | 0.0477 | 0.0582 | 0.0306 | 0.0374
290.15 K | 0.116 | 0.0483 | 0.0556 | 0.0669 | 0.0353 | 0.0449
295.15 K | 0.129 | 0.0559 | 0.0652 | 0.0751 | 0.0426 | 0.0522
300.15 K | 0.144 | 0.0659 | 0.0773 | 0.085 | 0.0514 | 0.0619
305.15 K | 0.163 | 0.0754 | 0.089 | 0.097 | 0.0619 | 0.0718
310.15 K | 0.187 | 0.0894 | 0.104 | 0.111 | 0.0735 | 0.0847
315.15 K | 0.215 | 0.103 | 0.121 | 0.129 | 0.0868 | 0.0985
320.15 K | 0.244 | 0.125 | 0.14 | 0.151 | 0.103 | 0.116
325.15 K | 0.279 | 0.147 | 0.164 | 0.178 | 0.126 | 0.139
330.15 K | 0.322 | 0.173 | 0.188 | 0.211 | 0.154 | 0.162
